Columns and labels:
Assay in all cases: KINOMEscan kinase binding assay
[1] = target: T1, 384 kinases from the human genome (Homo sapiens, UniProt P49336); settings: kinase CDK8 (Entrez CDK8)
T1 construct: purchased Eurofin/DiscoverX
Excerpt: (§1) We reasoned that because internalizing AT1R and its targeting to intracellular compartments can support continued MAPK signaling, and since 21 inhibits receptor internalization, it should also impede to some extent ERK1/2 activation. […] Receptor-mediated ERK1/2 signaling can involve upstream kinases such as PKC, BRAF, and MEK1[35],[36]. […] To exclude other kinases potentially involved in ERK1/2 and Akt activation as targets of 21, we ran a kinase binding assay (KINOMEscan™) on 384 kinases from the human genome. Remarkably, a very high selectivity score S(10) of 0.008 was found (Supplementary Data 3).
(§2) The chemical library used for initial screening was from Chembridge DiverSet™ (60,000 compounds), Maybridge HitFinder™ (16,000 compounds), Maybridge (selected, 16,000 compounds), SPECS (selected, 16000 compounds), Microsource Discovery Spectrum (2000 compounds), Biomol (natural products, 500 compounds), Prestwick (commercialized products, 1120 compounds), SIGMA LopacTM (1280 compounds) and internal collection (synthesized at Université de Montréal-IRIC, ~4000 compounds). Compounds were all assigned an Université de Montréal number (UM) for internal use. Screen was performed at IRIC HTS facility. KINOMEscan™ profiling was serviced by Eurofin/DiscoverX (San Diego, USA).
(§3) Description of Additional Supplementary Files […]
(§4) File Name: Supplementary Data 3
(§5) Description: KINOMEscan results. Compound 21’s effect was tested on 384 kinases. Data represent kinases binding to their ligands in presence of 10 µM of 21, as compared to DMSO (100%). Results are from one experiment and represent the average of duplicates. Three kinases (FLT3, KIT, and PDGFRB) out of 384 were more than 90% affected (selectivity score S(10) of 0.008). […]

[2] = target: T2, 384 kinases from the human genome (Homo sapiens, UniProt Q9Y3S1); settings: kinase WNK2 (Entrez WNK2)
T2 construct: purchased Eurofin/DiscoverX
Excerpt: as §1, §2, §3, §4, §5

[3] = target: T3, 384 kinases from the human genome (Homo sapiens, UniProt P42345); settings: kinase MTOR (Entrez MTOR)
T3 construct: purchased Eurofin/DiscoverX
Excerpt: as §1, §2, §3, §4, §5

[4] = target: T4, 384 kinases from the human genome (Homo sapiens, UniProt Q04759); settings: kinase PRKCQ (Entrez PRKCQ)
T4 construct: purchased Eurofin/DiscoverX
Excerpt: as §1, §2, §3, §4, §5

[5] = target: T5, 384 kinases from the human genome (Homo sapiens, UniProt P35916); settings: kinase FLT4 (Entrez FLT4)
T5 construct: purchased Eurofin/DiscoverX
Excerpt: as §1, §2, §3, §4, §5

[6] = target: T6, 384 kinases from the human genome (Homo sapiens, UniProt Q9BZL6); settings: kinase PRKD2 (Entrez PRKD2)
T6 construct: purchased Eurofin/DiscoverX
T6 sequence (Q9BZL6 whole entry): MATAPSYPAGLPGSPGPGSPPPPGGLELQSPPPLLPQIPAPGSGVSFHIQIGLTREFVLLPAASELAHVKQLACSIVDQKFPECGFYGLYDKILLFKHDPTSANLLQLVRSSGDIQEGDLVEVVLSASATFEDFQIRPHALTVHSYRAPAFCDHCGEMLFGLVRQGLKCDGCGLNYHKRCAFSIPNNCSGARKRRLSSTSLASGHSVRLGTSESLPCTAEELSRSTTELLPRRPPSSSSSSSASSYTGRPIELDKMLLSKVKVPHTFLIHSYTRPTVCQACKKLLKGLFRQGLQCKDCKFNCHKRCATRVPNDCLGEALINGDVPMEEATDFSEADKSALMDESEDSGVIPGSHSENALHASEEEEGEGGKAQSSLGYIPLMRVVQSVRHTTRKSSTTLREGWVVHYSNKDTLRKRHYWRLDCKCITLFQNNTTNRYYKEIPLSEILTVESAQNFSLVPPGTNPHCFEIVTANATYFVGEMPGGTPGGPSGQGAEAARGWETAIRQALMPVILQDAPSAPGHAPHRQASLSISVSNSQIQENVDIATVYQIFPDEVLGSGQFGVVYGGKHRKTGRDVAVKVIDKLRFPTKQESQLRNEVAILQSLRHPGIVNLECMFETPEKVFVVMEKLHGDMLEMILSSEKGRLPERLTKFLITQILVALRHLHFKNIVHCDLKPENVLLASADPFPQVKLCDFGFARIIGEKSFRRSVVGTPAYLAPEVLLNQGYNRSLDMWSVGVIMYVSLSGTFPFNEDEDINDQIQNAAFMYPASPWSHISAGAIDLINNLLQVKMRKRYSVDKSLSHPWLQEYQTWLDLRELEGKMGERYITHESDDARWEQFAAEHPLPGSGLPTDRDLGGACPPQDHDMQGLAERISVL
Excerpt: as §1, §2, §3, §4, §5

[7] = target: T7, 384 kinases from the human genome (Homo sapiens, UniProt P78368); settings: kinase CSNK1G2 (Entrez CSNK1G2)
T7 construct: purchased Eurofin/DiscoverX
Excerpt: as §1, §2, §3, §4, §5

[8] = target: T8, 384 kinases from the human genome (Homo sapiens, UniProt Q8TD19); settings: kinase NEK9 (Entrez NEK9)
T8 construct: purchased Eurofin/DiscoverX
Excerpt: as §1, §2, §3, §4, §5

[9] = target: T9, 384 kinases from the human genome (Homo sapiens, UniProt Q6XUX3); settings: kinase RIPK5 (Entrez DSTYK)
T9 construct: purchased Eurofin/DiscoverX
Excerpt: as §1, §2, §3, §4, §5

[10] = target: T10, 384 kinases from the human genome (Homo sapiens, UniProt P11309); settings: kinase PIM1 (Entrez PIM1)
T10 construct: purchased Eurofin/DiscoverX
Excerpt: as §1, §2, §3, §4, §5

[11] = target: T11, 384 kinases from the human genome (Homo sapiens, UniProt Q96D53); settings: kinase ADCK4 (Entrez ADCK4)
T11 construct: purchased Eurofin/DiscoverX
Excerpt: as §1, §2, §3, §4, §5

[12] = target: T12, 384 kinases from the human genome (Homo sapiens, UniProt Q08881); settings: kinase ITK (Entrez ITK)
T12 construct: purchased Eurofin/DiscoverX
T12 sequence (Q08881 whole entry): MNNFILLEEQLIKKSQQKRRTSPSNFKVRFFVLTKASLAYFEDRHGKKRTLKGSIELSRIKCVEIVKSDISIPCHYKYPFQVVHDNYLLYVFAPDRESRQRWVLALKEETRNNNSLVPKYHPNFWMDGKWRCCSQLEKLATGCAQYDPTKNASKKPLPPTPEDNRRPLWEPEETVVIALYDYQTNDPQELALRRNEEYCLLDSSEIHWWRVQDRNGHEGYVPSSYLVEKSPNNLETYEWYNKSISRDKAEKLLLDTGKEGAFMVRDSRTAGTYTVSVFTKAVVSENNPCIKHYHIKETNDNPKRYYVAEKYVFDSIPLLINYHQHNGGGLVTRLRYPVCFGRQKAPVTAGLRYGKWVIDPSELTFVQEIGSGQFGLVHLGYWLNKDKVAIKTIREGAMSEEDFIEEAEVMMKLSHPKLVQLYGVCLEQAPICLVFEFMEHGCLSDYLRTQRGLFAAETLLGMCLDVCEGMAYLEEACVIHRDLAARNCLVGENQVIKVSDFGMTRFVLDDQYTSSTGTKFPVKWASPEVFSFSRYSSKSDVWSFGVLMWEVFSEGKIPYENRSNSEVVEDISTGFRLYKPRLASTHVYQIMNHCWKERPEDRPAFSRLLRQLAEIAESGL
Excerpt: as §1, §2, §3, §4, §5

[13] = target: T13, 384 kinases from the human genome (Homo sapiens, UniProt Q13464); settings: kinase ROCK1 (Entrez ROCK1)
T13 construct: purchased Eurofin/DiscoverX
T13 sequence (Q13464 whole entry): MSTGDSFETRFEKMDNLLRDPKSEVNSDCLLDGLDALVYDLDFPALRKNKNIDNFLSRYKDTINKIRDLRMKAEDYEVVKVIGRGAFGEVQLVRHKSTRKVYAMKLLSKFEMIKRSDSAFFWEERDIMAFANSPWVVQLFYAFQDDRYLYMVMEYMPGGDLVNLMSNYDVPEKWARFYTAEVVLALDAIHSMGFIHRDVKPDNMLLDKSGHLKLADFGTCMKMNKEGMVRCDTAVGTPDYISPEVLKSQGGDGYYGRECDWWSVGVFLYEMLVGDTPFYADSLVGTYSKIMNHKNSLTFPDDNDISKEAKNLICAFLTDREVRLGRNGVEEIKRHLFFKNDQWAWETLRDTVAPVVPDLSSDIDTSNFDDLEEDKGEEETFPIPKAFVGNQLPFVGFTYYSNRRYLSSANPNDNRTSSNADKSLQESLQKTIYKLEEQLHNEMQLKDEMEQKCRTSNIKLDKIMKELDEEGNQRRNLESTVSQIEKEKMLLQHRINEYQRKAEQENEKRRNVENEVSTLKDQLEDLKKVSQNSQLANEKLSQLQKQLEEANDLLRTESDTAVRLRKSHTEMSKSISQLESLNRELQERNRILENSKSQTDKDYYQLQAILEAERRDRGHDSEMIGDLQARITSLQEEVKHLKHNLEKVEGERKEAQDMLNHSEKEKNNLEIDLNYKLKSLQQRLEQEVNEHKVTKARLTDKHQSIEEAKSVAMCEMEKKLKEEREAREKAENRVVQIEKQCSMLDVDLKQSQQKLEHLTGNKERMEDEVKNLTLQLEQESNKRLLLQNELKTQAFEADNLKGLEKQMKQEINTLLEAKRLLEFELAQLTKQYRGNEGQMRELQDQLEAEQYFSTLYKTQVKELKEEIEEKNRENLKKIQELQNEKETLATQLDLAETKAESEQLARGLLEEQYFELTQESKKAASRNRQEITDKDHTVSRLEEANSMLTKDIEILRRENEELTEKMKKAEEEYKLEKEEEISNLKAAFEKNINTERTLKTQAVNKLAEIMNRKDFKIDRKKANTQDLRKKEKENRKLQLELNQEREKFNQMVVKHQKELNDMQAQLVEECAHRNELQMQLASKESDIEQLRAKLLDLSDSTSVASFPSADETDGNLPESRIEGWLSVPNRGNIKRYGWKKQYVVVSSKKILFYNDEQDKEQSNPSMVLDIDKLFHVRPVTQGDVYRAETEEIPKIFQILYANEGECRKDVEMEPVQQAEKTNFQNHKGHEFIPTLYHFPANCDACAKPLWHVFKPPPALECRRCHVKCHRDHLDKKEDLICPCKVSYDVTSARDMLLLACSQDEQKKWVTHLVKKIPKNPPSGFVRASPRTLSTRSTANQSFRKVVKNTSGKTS
Excerpt: as §1, §2, §3, §4, §5

[14] = target: T14, 384 kinases from the human genome (Homo sapiens, UniProt P50613); settings: kinase CDK7 (Entrez CDK7)
T14 construct: purchased Eurofin/DiscoverX
Excerpt: as §1, §2, §3, §4, §5

[15] = target: T15, 384 kinases from the human genome (Homo sapiens, UniProt Q06187); settings: kinase BTK (Entrez BTK)
T15 construct: purchased Eurofin/DiscoverX
Excerpt: as §1, §2, §3, §4, §5

[16] = target: T16, 384 kinases from the human genome (Homo sapiens, UniProt O95835); settings: kinase LATS1 (Entrez LATS1)
T16 construct: purchased Eurofin/DiscoverX
T16 sequence (O95835 whole entry): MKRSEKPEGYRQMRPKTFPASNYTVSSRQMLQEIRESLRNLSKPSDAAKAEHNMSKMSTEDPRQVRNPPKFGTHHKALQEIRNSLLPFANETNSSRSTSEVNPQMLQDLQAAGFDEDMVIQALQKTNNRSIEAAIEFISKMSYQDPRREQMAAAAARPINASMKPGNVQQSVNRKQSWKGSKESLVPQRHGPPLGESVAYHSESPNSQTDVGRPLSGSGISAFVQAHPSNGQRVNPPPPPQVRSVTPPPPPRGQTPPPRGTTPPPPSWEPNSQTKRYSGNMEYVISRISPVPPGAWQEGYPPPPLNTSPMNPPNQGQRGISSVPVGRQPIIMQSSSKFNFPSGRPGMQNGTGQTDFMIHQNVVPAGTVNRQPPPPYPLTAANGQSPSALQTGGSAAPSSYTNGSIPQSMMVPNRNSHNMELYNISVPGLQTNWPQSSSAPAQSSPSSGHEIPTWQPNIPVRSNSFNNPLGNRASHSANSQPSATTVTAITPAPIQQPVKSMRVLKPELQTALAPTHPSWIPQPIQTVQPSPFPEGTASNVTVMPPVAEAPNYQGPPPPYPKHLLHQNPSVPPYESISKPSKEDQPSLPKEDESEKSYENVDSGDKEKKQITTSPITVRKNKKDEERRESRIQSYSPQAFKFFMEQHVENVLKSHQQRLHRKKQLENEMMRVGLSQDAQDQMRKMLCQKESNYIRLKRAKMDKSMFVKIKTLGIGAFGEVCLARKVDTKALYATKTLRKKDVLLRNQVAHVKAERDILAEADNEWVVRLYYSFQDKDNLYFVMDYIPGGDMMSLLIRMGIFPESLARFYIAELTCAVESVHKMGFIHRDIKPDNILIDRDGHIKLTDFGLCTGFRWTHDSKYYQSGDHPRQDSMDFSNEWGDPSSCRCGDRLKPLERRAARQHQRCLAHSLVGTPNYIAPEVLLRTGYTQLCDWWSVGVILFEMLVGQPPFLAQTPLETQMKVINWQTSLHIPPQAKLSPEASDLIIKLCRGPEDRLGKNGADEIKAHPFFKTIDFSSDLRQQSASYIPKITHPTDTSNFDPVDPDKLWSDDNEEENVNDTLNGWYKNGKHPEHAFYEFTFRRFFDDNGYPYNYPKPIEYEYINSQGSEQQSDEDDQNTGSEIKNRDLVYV
Excerpt: as §1, §2, §3, §4, §5

[17] = target: T17, 384 kinases from the human genome (Homo sapiens, UniProt P49759); settings: kinase CLK1 (Entrez CLK1)
T17 construct: purchased Eurofin/DiscoverX
Excerpt: as §1, §2, §3, §4, §5

[18] = target: T18, 384 kinases from the human genome (Homo sapiens, UniProt O14578); settings: kinase CIT (Entrez CIT)
T18 construct: purchased Eurofin/DiscoverX
Excerpt: as §1, §2, §3, §4, §5

[19] = target: T19, 384 kinases from the human genome (Homo sapiens, UniProt Q8TDX7); settings: kinase NEK7 (Entrez NEK7)
T19 construct: purchased Eurofin/DiscoverX
Excerpt: as §1, §2, §3, §4, §5

[20] = target: T20, 384 kinases from the human genome (Homo sapiens, UniProt Q07002); settings: kinase PCTK3 (Entrez CDK18)
T20 construct: purchased Eurofin/DiscoverX
T20 sequence (Q07002 whole entry): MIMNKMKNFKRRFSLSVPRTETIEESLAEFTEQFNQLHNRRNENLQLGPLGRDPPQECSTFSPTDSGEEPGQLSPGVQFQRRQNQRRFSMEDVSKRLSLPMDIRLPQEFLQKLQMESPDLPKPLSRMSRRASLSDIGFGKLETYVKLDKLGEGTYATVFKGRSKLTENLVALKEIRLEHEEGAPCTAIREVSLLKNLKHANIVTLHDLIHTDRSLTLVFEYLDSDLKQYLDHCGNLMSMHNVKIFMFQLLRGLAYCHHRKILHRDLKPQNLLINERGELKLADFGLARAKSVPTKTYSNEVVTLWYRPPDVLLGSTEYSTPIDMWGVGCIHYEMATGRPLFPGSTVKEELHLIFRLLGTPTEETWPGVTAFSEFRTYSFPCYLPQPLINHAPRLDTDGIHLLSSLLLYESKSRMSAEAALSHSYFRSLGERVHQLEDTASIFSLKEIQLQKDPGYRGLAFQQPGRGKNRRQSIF
Excerpt: as §1, §2, §3, §4, §5

[21] = target: T21, 384 kinases from the human genome (Homo sapiens, UniProt Q9Y243); settings: kinase AKT3 (Entrez AKT3)
T21 construct: purchased Eurofin/DiscoverX
Excerpt: as §1, §2, §3, §4, §5

[22] = target: T22, 384 kinases from the human genome (Homo sapiens, UniProt P52564); settings: kinase MEK6 (Entrez MAP2K6)
T22 construct: purchased Eurofin/DiscoverX
Excerpt: as §1, §2, §3, §4, §5

[23] = target: T23, 384 kinases from the human genome (Homo sapiens, UniProt Q9UEW8); settings: kinase STK39 (Entrez STK39)
T23 construct: purchased Eurofin/DiscoverX
Excerpt: as §1, §2, §3, §4, §5

[24] = target: T24, 384 kinases from the human genome (Homo sapiens, UniProt P49760); settings: kinase CLK2 (Entrez CLK2)
T24 construct: purchased Eurofin/DiscoverX
T24 sequence (P49760 whole entry): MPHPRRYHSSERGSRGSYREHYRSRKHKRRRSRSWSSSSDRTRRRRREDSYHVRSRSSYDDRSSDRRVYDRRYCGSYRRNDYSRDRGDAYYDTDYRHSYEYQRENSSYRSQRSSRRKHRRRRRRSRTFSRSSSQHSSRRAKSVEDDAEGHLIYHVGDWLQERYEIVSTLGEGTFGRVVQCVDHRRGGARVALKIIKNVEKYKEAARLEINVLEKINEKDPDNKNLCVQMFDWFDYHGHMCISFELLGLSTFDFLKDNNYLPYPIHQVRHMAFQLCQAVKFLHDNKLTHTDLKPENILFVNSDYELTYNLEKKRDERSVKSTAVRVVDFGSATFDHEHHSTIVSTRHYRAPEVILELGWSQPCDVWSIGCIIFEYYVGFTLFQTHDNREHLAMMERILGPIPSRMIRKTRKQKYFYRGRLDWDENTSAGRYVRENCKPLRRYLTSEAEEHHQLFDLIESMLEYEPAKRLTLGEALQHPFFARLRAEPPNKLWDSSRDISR
Excerpt: as §1, §2, §3, §4, §5

[25] = target: T25, 384 kinases from the human genome (Homo sapiens, UniProt Q9NRH2); settings: kinase SNRK (Entrez SNRK)
T25 construct: purchased Eurofin/DiscoverX
Excerpt: as §1, §2, §3, §4, §5

[26] = target: T26, 384 kinases from the human genome (Homo sapiens, UniProt P29376); settings: kinase LTK (Entrez LTK)
T26 construct: purchased Eurofin/DiscoverX
Excerpt: as §1, §2, §3, §4, §5

[27] = target: T27, 384 kinases from the human genome (Homo sapiens, UniProt Q6DT37); settings: kinase DMPK2 (Entrez CDC42BPG)
T27 construct: purchased Eurofin/DiscoverX
Excerpt: as §1, §2, §3, §4, §5

CC(C)C(=O)N1CCN(c2ccc(NC(=O)c3cc4ccccc4o3)cc2Cl)CC1 [Compound 21]
Percent Control [1]: 100%
Percent Control [2]: 100%
Percent Control [3]: 65%
Percent Control [4]: 93%
Percent Control [5]: 89%
Percent Control [6]: 100%
Percent Control [7]: 92%
Percent Control [8]: 100%
Percent Control [9]: 78%
Percent Control [10]: 96%
Percent Control [11]: 77%
Percent Control [12]: 100%
Percent Control [13]: 88%
Percent Control [14]: 83%
Percent Control [15]: 94%
Percent Control [16]: 98%
Percent Control [17]: 98%
Percent Control [18]: 75%
Percent Control [19]: 100%
Percent Control [20]: 96%
Percent Control [21]: 100%
Percent Control [22]: 97%
Percent Control [23]: 100%
Percent Control [24]: 100%
Percent Control [25]: 78%
Percent Control [26]: 90%
Percent Control [27]: 77%
